{"source": "patent US9198909B1", "about": "“Materials and methods for inhibiting mamalian S-nitrosoglutathione reductase” (Indiana University Research and Technology Corporation, priority 2007, dated 2015)", "key": {"[1]": {"system": "RAW 264.7 cells", "assay": "cGMP accumulation in RAW 264.7 cells", "format": "cell-based, rat", "conditions": "50 μM GSNO, 10 minutes", "protocol": "cGMP plays key roles in vascular biology. To test whether inhibition of GSNOR increases cGMP production, RAW 264.7 cells were incubated with 50 μM GSNO±, both with and without compound 8, one of the subject GSNOR inhibitors of this invention. Next the amount of cGMP accumulation after 10 minutes was measured. Referring now to FIG. 6, GSNO activates soluble Guanylate Cyclase as previously described (Mayer et al J Biol Chem, Vol. 273, Issue 6, 3264-3270, Feb. 6, 1998). Compound 8 (GSNORi in the figure) potentiates the effect of GSNO by 2.5 fold.\nReferring now to FIG. 6, RAW 264.7 cells were incubated with 50 μM GSNO±compound 8 the subject GSNOR inhibitor of this invention and then measured the amount of cGMP accumulation after 10 minutes. As shown in the figure GSNO activates soluble Guanylate Cyclase as previously described (Mayer et al J Biol Chem, Vol. 273, Issue 6, 3264-3270, Feb. 6, 1998). One mechanism by which compound 8 exerts its biochemical effects is due to its inhibition of GSNOR, which then potentiates the effects of GSNO on cGMP production resulting in higher cGMP levels."}, "[2]": {"system": "mouse aorta segments", "assay": "Wire myography, relaxation of aortic rings", "protocol": "Referring now to FIG. 5, mouse aorta segments were equilibrated in oxygenated PSS (95% O2 and 5% CO2) at 37° C. Following equilibration, 1 μM phenylephrine was added to each ring for submaximal contraction. After stabilization, increasing concentrations (10−9 M to 10−4 M) of either compound 8 or sodium nitroprusside (SNP) was added to the rings and the tone of the rings determined (B) Inhibition of compound 8 induced relaxation of aortal rings by nitric oxide synthase inhibitor, L-NAME. To pre-equilibrated and submaximally contracted aortal rings with phenylephrine (1 micromolar), LNAME (500 micromolar) was added to the bath and allowed to incubate for 30 minutes. […] Each experiment was performed using two rings from three different mice and the mean (±SEM) for each response determined.\nMice were anesthetized with diethyl ether. A thoracotomy was performed to expose thoracic and abdominal aorta. A 25 gauge syringe was inserted into the apex of left ventricle and perfused free of blood with oxygenated Krebs Henseleit buffer. The right atrium was cut to provide an exit for blood. The aorta was removed and cleaned of fat and adventitia. The aorta was cut into 2-mm-long segments and mounted on a four-channel wire myograph (AD Instruments). Vessel rings were maintained in 10-ml organ baths with oxygenated PSS (95% O2 and 5% CO2) at 37° C. Rings were allowed to equilibrate for 80 minutes with the buffer in each organ bath changed every 20 min. One gram pretension was placed on each aortic ring (appropriate starting tension for optimal vasomotor function as determined in previous experiments). An eight-channel octal bridge (Powerlab) and data-acquisition software (Chart version 5.2.2) were used to record all force measurements. After equilibration for 80 min, 1 μM 27 phenylephrine was added to each ring for submaximal contraction. After stabilization, either compound 8 or sodium nitroprusside (SNP) was added to the rings and the tone of the rings determined. For the determination of SNP and ACh dose-response relationships, aortic rings were precontracted with 10−6 M PE, and SNP or compound 8 was then added in increasing concentrations from 10−9 M to 10−4 M. In a subset of experiments, L-NAME was added (500 μM final) to the bath and allowed to incubate for 30 minutes. After 30 minutes, compound 8 was added and the tone of the rings determined as described above."}, "[3]": {"target": "GSNOR (Homo sapiens, UniProt P11766)", "sequence (P11766 2-374 limits assumed)": "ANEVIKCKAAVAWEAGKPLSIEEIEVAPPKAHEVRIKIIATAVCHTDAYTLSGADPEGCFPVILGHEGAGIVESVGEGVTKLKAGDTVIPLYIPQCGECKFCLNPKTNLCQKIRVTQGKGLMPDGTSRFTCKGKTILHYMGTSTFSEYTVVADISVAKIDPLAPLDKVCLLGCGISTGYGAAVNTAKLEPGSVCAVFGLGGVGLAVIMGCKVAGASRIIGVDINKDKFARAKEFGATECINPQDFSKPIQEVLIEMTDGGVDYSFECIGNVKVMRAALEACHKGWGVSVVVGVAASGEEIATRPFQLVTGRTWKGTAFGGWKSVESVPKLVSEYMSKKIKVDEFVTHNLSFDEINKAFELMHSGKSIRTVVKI", "assay": "GSNOR inhibition at pH 10 (octanol, NAD+)", "format": "biochemical", "set-up": "made in house; host or cells: E. coli", "conditions": "pH 10 versus pH 7.5", "protocol": "Referring now to Table 1, inhibition was studied at pH 10. These assays were performed in 0.1 M sodium glycine containing 1 mM octanol, 1 mM NAD^+, 0.1 mM EDTA and 50 μM inhibitor. Inhibition studies at pH 7.5 were performed in 50 mM potassium phosphate pH 7.5 that included 15 μM NADH, 10 μM GSNO, 0.1 mM EDTA and 50 μM inhibitor. The data file to a model consisted with partial inhibition and a hill coefficient of 2.4 in the inhibition curve. The screening for GSNOR inhibitors was performed using a library of 60,000 compounds from ChemDiv Inc in the Chemical Genomics Core facility at Indiana University. Screening was conducted in 384 well plates and involved incubating GSNOR with 12.5 μM compound, 1 mM each of NAD^+ and octanol in 0.1 M sodium glycine pH 10. Enzyme activity was determined by measuring the rate of production of NADH spectrophotometrically at 340 nm. Inhibition of GSNOR was calculated from the ratio of enzyme activity in the presence of compounds to that in no compound controls performed on the same assay plate. Following their identification from the high-throughput screening, the GSNOR inhibitory properties of the initial hits were confirmed at the pH 10 using 12-hydroxydodecanoic acid as the substrate and at pH 7.5 using GSNO as the substrate (see the brief description of Table 1 for details on how the assay was carried out.)"}, "[4]": {"conditions": "direct comparison with sodium nitroprusside"}}, "data": [{"smiles": "N#Cc1ccccc1CSc1nc2ccsc2c(=O)n1Cc1ccc(C(=O)O)cc1", "note": "[Compound 8]", "values": [{"measurement": "potentiation of the effect of GSNO on cGMP", "setting": "[1]", "value": 2.5, "unit": "fold"}, {"measurement": "time to begin relaxation", "setting": "[2]", "value": "around 3 minutes"}, {"measurement": "duration of sustained vessel relaxation", "setting": "[2]; 50 μM", "value": "up to 2 hours"}, {"measurement": "relaxation of the vessels", "setting": "[2]; 50 μM", "value": "completely relaxed"}, {"measurement": "time to complete relaxation", "setting": "[2]; 50 μM", "value": "≤ 15", "unit": "min"}, {"measurement": "inhibition of vasorelaxation by L-NAME preincubation", "setting": "[2]; 500 μM L-NAME for 30 minutes, then 50 μM compound 8", "value": "roughly 58%"}, {"measurement": "duration of the effect compared with SNP", "setting": "[2]; [4]", "value": "much longer than with SNP"}, {"measurement": "potency at relaxing vascular smooth muscle compared with SNP", "setting": "[2]; [4]", "value": "less potent than SNP"}, {"measurement": "EC50", "setting": "[2]; rings precontracted with 1 μM phenylephrine, read-out: EC50 of vessel relaxation", "value": 5, "unit": "µM"}, {"measurement": "GSNOR inhibition at pH 10 compared with pH 7.5", "setting": "[3]", "value": "higher GSNOR inhibition at pH 10 than at pH 7.5"}]}]}
